According to publication PMC10709440, “High-throughput ligand profile characterization in novel cell lines expressing seven heterologous insect olfactory receptors for the detection of volatile plant biomarkers” (Scientific Reports, 2023):
“And” between values parts separate entries of the source, which are not always exact repeats. Equal values may be shown once. Read-outs that look alike come from different tables or passages of the source.

Experiments:
Drosophila OR10a = biological target: T1, Drosophila OR10a (Drosophila melanogaster, UniProt Q9VYZ1); assay: Calcium ion fluorescence (GCaMP6) assay, OR10a stable HEK293 cell line; assay type: cell-based; details: for activation at 1 µM / activation at 10 µM / activation at 100 µM: 50 μM VUAA1 = 1, responses not exceeding 0.05 considered 0; for OR10a response (VUAA1-normalized) at 1 μM / OR10a response (VUAA1-normalized) at 10 μM / OR10a response (VUAA1-normalized) at 100 μM: OR10a cell line; for OR10a response (VUAA1-normalized) at 1 μM: VOC concentration 1 μM; for OR10a response (VUAA1-normalized) at 10 μM: VOC concentration 10 μM; for OR10a response (VUAA1-normalized) at 100 μM: VOC concentration 100 μM; for DF norm AVERAGE OR10a: threshold 0.05, below shown as 0
T1 construct: expressed in transfected cells
T1 sequence (Q9VYZ1 1-406): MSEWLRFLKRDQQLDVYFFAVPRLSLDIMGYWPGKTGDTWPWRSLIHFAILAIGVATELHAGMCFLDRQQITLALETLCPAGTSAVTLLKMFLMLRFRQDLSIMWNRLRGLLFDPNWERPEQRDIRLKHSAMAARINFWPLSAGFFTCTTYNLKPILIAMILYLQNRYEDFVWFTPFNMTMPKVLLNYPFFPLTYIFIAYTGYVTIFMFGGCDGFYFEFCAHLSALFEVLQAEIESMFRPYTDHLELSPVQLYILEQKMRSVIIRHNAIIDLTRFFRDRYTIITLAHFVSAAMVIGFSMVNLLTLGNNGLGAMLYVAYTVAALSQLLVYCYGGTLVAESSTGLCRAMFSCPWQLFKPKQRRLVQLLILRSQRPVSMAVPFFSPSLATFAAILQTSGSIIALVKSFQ
T1 sequence (Q9VNB5 1-486 partner): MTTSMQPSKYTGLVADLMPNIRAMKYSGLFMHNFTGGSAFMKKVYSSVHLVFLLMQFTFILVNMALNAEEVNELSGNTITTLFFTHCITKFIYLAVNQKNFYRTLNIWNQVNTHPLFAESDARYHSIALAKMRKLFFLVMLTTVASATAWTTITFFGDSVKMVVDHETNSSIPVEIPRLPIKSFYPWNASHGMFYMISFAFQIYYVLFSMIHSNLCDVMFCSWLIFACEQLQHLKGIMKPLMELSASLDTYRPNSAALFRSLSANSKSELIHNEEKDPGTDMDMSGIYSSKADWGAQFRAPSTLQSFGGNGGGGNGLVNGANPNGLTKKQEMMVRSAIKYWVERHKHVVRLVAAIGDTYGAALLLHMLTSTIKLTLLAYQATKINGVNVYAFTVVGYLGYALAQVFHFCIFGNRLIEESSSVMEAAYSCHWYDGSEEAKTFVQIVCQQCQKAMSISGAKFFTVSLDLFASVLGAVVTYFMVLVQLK
Method in brief: (§1)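 Responses are VUAA1-normalized ΔF: each VOC-evoked calcium signal, (FMAX−F0)/F0 over 30 s after injection, divided by the same line's mean 50 µM VUAA1 response. Cells were doxycycline-induced HEK293 with GCaMP6 and the cognate Drosophila OR, in HEPES buffer pH 7.3; ligands tested 0.01–100 μM.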

Drosophila OR98a = biological target: T2, Drosophila OR98a (Drosophila melanogaster, UniProt Q9VAZ3); assay: Calcium ion fluorescence (GCaMP6) assay, OR98a stable HEK293 cell line; assay type: cell-based; details: for OR98a response (VUAA1-normalized) at 1 μM / OR98a response (VUAA1-normalized) at 10 μM / OR98a response (VUAA1-normalized) at 100 μM: OR98a cell line; for OR98a response (VUAA1-normalized) at 1 μM: VOC concentration 1 μM; for OR98a response (VUAA1-normalized) at 10 μM: VOC concentration 10 μM; for OR98a response (VUAA1-normalized) at 100 μM: VOC concentration 100 μM; for DF norm AVERAGE OR98a: threshold 0.05, below shown as 0
T2 construct: expressed in transfected cells
T2 sequence (Q9VAZ3 1-397): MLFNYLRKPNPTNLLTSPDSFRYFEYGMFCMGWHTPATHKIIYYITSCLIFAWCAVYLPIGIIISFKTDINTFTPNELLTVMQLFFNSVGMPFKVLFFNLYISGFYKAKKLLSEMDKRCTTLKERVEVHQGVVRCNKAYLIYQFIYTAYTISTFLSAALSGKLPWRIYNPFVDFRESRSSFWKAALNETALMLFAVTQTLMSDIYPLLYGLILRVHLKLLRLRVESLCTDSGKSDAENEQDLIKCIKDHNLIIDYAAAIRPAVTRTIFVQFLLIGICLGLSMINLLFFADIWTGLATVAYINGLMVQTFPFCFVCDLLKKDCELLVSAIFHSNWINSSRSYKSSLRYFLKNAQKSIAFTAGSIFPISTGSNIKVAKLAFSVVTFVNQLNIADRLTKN
T2 sequence (Q9VNB5 1-486 partner): T1 sequence (Q9VNB5 1-486 partner)
Method in brief: as §1

[1] = HEK293, 1 μM VOC, read-out: OR10a Average response (VUAA1-normalized)
[2] = HEK293, 10 μM VOC, read-out: OR10a Average response (VUAA1-normalized)
[3] = HEK293, 100 μM VOC, read-out: OR10a Average response (VUAA1-normalized)
[4] = ligand concentration 1 (unit not given)
[5] = ligand concentration 10 (unit not given)
[6] = ligand concentration 100 (unit not given)
[7] = HEK293, read-out: Average response
[8] = HEK293, read-out: OR98a Average response (VUAA1-normalized)

## CCCCCOC(C)=O [pentyl acetate]
Drosophila OR10a; [1]
  activation at 1 µM: 11%
Drosophila OR10a; [2]
  activation at 10 µM: 8%
Drosophila OR10a; [3]
  activation at 100 µM: 30%
Drosophila OR10a
  OR10a response (VUAA1-normalized) at 1 μM: 0.11
  OR10a response (VUAA1-normalized) at 10 μM: 0.08
  OR10a response (VUAA1-normalized) at 100 μM: 0.30
Drosophila OR10a; [4]
  DF norm AVERAGE OR10a: 0.109
Drosophila OR10a; [5]
  DF norm AVERAGE OR10a: 0.07718
Drosophila OR10a; [6]
  DF norm AVERAGE OR10a: 0.3011
Drosophila OR98a; [7]
  activation at 1 µM: 1.61%
  activation at 10 µM: 4%
  activation at 100 µM: 14%
Drosophila OR98a; [8]
  activation at 1 µM: 2%
  activation at 10 µM: 4%
  activation at 100 µM: 14%
Drosophila OR98a
  OR98a response (VUAA1-normalized) at 1 μM: 0.00
  OR98a response (VUAA1-normalized) at 10 μM: 0.00
  OR98a response (VUAA1-normalized) at 100 μM: 0.14
Drosophila OR98a; [4]
  DF norm AVERAGE OR98a: 0
Drosophila OR98a; [5]
  DF norm AVERAGE OR98a: 0
Drosophila OR98a; [6]
  DF norm AVERAGE OR98a: 0.136

## Cc1cccc(C)c1 [m-xylene]
Drosophila OR10a; HEK293, read-out: OR10a Average response (VUAA1-normalized), 1 μM VOC
  activation at 1 µM: 0%
Drosophila OR10a; HEK293, read-out: OR10a Average response (VUAA1-normalized), 10 μM VOC
  activation at 10 µM: 0%
Drosophila OR10a; HEK293, read-out: OR10a Average response (VUAA1-normalized), 100 μM VOC
  activation at 100 µM: 2%
Drosophila OR10a
  OR10a response (VUAA1-normalized) at 1 μM: 0.00
  OR10a response (VUAA1-normalized) at 10 μM: 0.00
  OR10a response (VUAA1-normalized) at 100 μM: 0.00
Drosophila OR10a; [4]
  DF norm AVERAGE OR10a: 0
Drosophila OR10a; [5]
  DF norm AVERAGE OR10a: 0
Drosophila OR10a; [6]
  DF norm AVERAGE OR10a: 0
Drosophila OR98a; [7]
  activation at 1 µM: 0%
  activation at 10 µM: 0%
  activation at 100 µM: 2.54%
Drosophila OR98a
  OR98a response (VUAA1-normalized) at 1 μM: 0.00
  OR98a response (VUAA1-normalized) at 10 μM: 0.00
  OR98a response (VUAA1-normalized) at 100 μM: 0.00
Drosophila OR98a; [4]
  DF norm AVERAGE OR98a: 0
Drosophila OR98a; [5]
  DF norm AVERAGE OR98a: 0
Drosophila OR98a; [6]
  DF norm AVERAGE OR98a: 0

## COC(=O)c1ccccc1O [methyl salicylate]
Drosophila OR10a; AVERAGE EC50, from the average LOG EC50 of 5 biological replicates, unit inferred
  EC50: 75.5 nM
Drosophila OR10a; EC50, FITTED AVERAGE CURVE, fit of the averaged dose-response curve, unit inferred
  EC50: 68.6 nM
Drosophila OR10a; EC50, OR10a cell line, fitted Hill equation, Hill coefficient constrained to 1, maximal response max 1
  EC50: 80 nM
Drosophila OR10a; EC50 AVERAGE (arithmetic average of fitted EC50), average of 5 biological replicates, unit inferred
  EC50: 90.1 nM
Drosophila OR10a; [1]
  activation at 1 µM: 49%
Drosophila OR10a; [2]
  activation at 10 µM: 55%
Drosophila OR10a; [3]
  activation at 100 µM: 95%
Drosophila OR10a; HEK293, read-out: VUAA1 normalized MAX response
  Emax: 44%
Drosophila OR10a; Hill coefficient of the fit of the averaged curve
  n, FITTED AVERAGE CURVE: 0.855
Drosophila OR10a
  OR10a response (VUAA1-normalized) at 1 μM: 0.49
  OR10a response (VUAA1-normalized) at 10 μM: 0.55
  OR10a response (VUAA1-normalized) at 100 μM: 0.95
Drosophila OR10a; average of 5 biological replicates
  AVERAGE MAX: 0.4437
Drosophila OR10a; concentration 0.008, average of biological replicates
  response, AVERAGE: 0.06886
Drosophila OR10a; concentration 0.016, average of biological replicates
  response, AVERAGE: 0.1014
Drosophila OR10a; concentration 0.032, N 1
  response, AVERAGE: 0.1576
Drosophila OR10a; concentration 0.075, average of biological replicates
  response, AVERAGE: 0.2051
Drosophila OR10a; concentration 0.15, average of biological replicates
  response, AVERAGE: 0.2778
Drosophila OR10a; concentration 0.3, average of biological replicates
  response, AVERAGE: 0.4027
Drosophila OR10a; concentration 0.6, average of biological replicates
  response, AVERAGE: 0.307
Drosophila OR10a; concentration 1.25, average of biological replicates
  response, AVERAGE: 0.417
Drosophila OR10a; concentration 2.5, average of biological replicates
  response, AVERAGE: 0.471
Drosophila OR10a; concentration 5, average of biological replicates
  response, AVERAGE: 0.4362
Drosophila OR10a; concentration 10, average of biological replicates
  response, AVERAGE: 0.4759
Drosophila OR10a; concentration 20, average of biological replicates
  response, AVERAGE: 0.4313
Drosophila OR10a; concentration 40, average of biological replicates
  response, AVERAGE: 0.3644
Drosophila OR10a; fit of the averaged dose-response curve
  MAX, fitted average curve: 0.4394
Drosophila OR10a; individual biological replicates, normalized response
  MAX (fitted parameter): 0.4829 and 0.2572 and 0.5237 and 0.5964 and 0.3582
Drosophila OR10a; [4]
  DF norm AVERAGE OR10a: 0.4904
Drosophila OR10a; [5]
  DF norm AVERAGE OR10a: 0.5549
Drosophila OR10a; [6]
  DF norm AVERAGE OR10a: 0.9525
Drosophila OR98a; [7]
  activation at 1 µM: 3%
  activation at 10 µM: 1.79%
  activation at 100 µM: 4%
Drosophila OR98a
  OR98a response (VUAA1-normalized) at 1 μM: 0.00
  OR98a response (VUAA1-normalized) at 10 μM: 0.00
  OR98a response (VUAA1-normalized) at 100 μM: 0.00
Drosophila OR98a; [4]
  DF norm AVERAGE OR98a: 0
Drosophila OR98a; [5]
  DF norm AVERAGE OR98a: 0
Drosophila OR98a; [6]
  DF norm AVERAGE OR98a: 0
